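Tested at 5 concentrations; 48 h exposure; 96-well plates; endpoints linearly interpolated, else capped at highest concentration. The concentration for 50% growth inhibition is given as GI50.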 Activity calls are given as the source filed them. Cut-off read from the data, not from the text of the source: active = GI50 up to about 1.1 µM and inactive = higher.
Tests used:
Experiment in all cases: growth of human tumour cells (NCI), 48 h
K562 = tested on: K562
HL-60 = tested on: HL-60
HCC 2998 = tested on: HCC 2998
MOLT-4 = tested on: MOLT-4
SNB-75 = tested on: SNB-75
OVCAR-5 = tested on: OVCAR-5
SF-295 = tested on: SF-295
OVCAR-8 = tested on: OVCAR-8
RPMI-8226 = tested on: RPMI-8226
NCI-H522 = tested on: NCI-H522
MDA-MB-435 = tested on: MDA-MB-435
UACC-257 = tested on: UACC-257
SW-620 = tested on: SW-620
ACHN = tested on: ACHN
Hs-578T = tested on: Hs-578T
RXF 393 = tested on: RXF 393
SNB-19 = tested on: SNB-19
EKVX = tested on: EKVX
MDA-MB-231 = tested on: MDA-MB-231
T47D = tested on: T47D
CAKI-1 = tested on: CAKI-1
HCT-15 = tested on: HCT-15
LOX IMVI = tested on: LOX IMVI
SF-539 = tested on: SF-539
MCF7 = tested on: MCF7
PC-3 = tested on: PC-3
SK-MEL-2 = tested on: SK-MEL-2
BT-549 = tested on: BT-549
SK-MEL-5 = tested on: SK-MEL-5
NCI-H460 = tested on: NCI-H460
DU-145 = tested on: DU-145
NCI-H23 = tested on: NCI-H23
HCT-116 = tested on: HCT-116
A498 = tested on: A498
UO-31 = tested on: UO-31
CCRF-CEM = tested on: CCRF-CEM
SF-268 = tested on: SF-268
A549 = tested on: A549
NCI/ADR-RES = tested on: NCI/ADR-RES
786-0 = tested on: 786-0
MDA-N = tested on: MDA-N
COLO 205 = tested on: COLO 205
U-251 = tested on: U-251
IGROV-1 = tested on: IGROV-1
HOP-62 = tested on: HOP-62
TK-10 = tested on: TK-10
SR = tested on: SR
Malme-3M = tested on: Malme-3M
NCI-H226 = tested on: NCI-H226
SK-OV-3 = tested on: SK-OV-3
HOP-92 = tested on: HOP-92
OVCAR-3 = tested on: OVCAR-3
HT-29 = tested on: HT-29
OVCAR-4 = tested on: OVCAR-4
SN12C = tested on: SN12C
M14 = tested on: M14
SK-MEL-28 = tested on: SK-MEL-28
UACC-62 = tested on: UACC-62
KM12 = tested on: KM12

How did the GI50 (K562) turn out when COC(=O)/C=C(/C(=O)OC)c1cc2ccc3c([nH]c4ccccc43)c(C)c-2c1 was run?
Its GI50 is 2.54 µM (inactive).

And the GI50 (HL-60)?
Its GI50 is 3.15 µM (inactive).

And the GI50 (HCC 2998)?
The GI50 was 3.92 µM (inactive).

What about the GI50 (MOLT-4) of the same compound?
The GI50 was 3.13 µM (inactive).

What about the GI50 (SNB-75) of the same compound?
The GI50 was 5.26 µM (inactive).

And the GI50 (OVCAR-5)?
Its GI50 is 3.56 µM (inactive).

What about the GI50 (SF-295) of the same compound?
Its GI50 is 4.12 µM (inactive).

And the GI50 (OVCAR-8)?
The GI50 was 3.03 µM (inactive).

And the GI50 (RPMI-8226)?
The GI50 was 3.72 µM (inactive).

What about the GI50 (NCI-H522) of the same compound?
The GI50 was 2.54 µM (inactive).

And the GI50 (MDA-MB-435)?
The GI50 was 3.94 µM (inactive).

What about the GI50 (UACC-257) of the same compound?
The GI50 was 6.95 µM (inactive).

And the GI50 (SW-620)?
The GI50 was 4.93 µM (inactive).

And the GI50 (ACHN)?
Its GI50 is 6.61 µM (inactive).

And the GI50 (Hs-578T)?
The GI50 was 3.41 µM (inactive).

What about the GI50 (RXF 393) of the same compound?
Its GI50 is 7.31 µM (inactive).

What about the GI50 (SNB-19) of the same compound?
The GI50 was 9.29 µM (inactive).

What about the GI50 (EKVX) of the same compound?
The GI50 was 3.76 µM (inactive).

And the GI50 (MDA-MB-231)?
Its GI50 is 3.8 µM (inactive).

What about the GI50 (T47D) of the same compound?
The GI50 was 3.6 µM (inactive).

And the GI50 (CAKI-1)?
Its GI50 is 6.32 µM (inactive).

What about the GI50 (HCT-15) of the same compound?
Its GI50 is 3.94 µM.

And the GI50 (LOX IMVI)?
The GI50 was 3.66 µM (inactive).

What about the GI50 (SF-539) of the same compound?
Its GI50 is 11.4 µM (inactive).

And the GI50 (MCF7)?
Its GI50 is 2.79 µM (inactive).

What about the GI50 (PC-3) of the same compound?
Its GI50 is 2.68 µM (inactive).

And the GI50 (SK-MEL-2)?
Its GI50 is 7.5 µM (inactive).

And the GI50 (BT-549)?
Its GI50 is 4.78 µM (inactive).

What about the GI50 (SK-MEL-5) of the same compound?
Its GI50 is 2.88 µM (inactive).

What about the GI50 (NCI-H460) of the same compound?
Its GI50 is 4.45 µM (inactive).

What about the GI50 (DU-145) of the same compound?
The GI50 was 9.73 µM (inactive).

What about the GI50 (NCI-H23) of the same compound?
The GI50 was 3.96 µM (inactive).

What about the GI50 (HCT-116) of the same compound?
Its GI50 is 4.49 µM (inactive).

And the GI50 (A498)?
The GI50 was 8.04 µM (inactive).

And the GI50 (UO-31)?
Its GI50 is 3.79 µM (inactive).

And the GI50 (CCRF-CEM)?
The GI50 was 2.9 µM (inactive).

What about the GI50 (SF-268) of the same compound?
Its GI50 is 4.26 µM (inactive).

And the GI50 (A549)?
Its GI50 is 4.73 µM (inactive).

What about the GI50 (NCI/ADR-RES) of the same compound?
Its GI50 is 3.46 µM (inactive).

And the GI50 (786-0)?
Its GI50 is 4.78 µM (inactive).

What about the GI50 (MDA-N) of the same compound?
Its GI50 is 2.9 µM (inactive).

And the GI50 (COLO 205)?
Its GI50 is 1.75 µM (inactive).

And the GI50 (U-251)?
The GI50 was 3.85 µM (inactive).

What about the GI50 (IGROV-1) of the same compound?
Its GI50 is 2.74 µM (inactive).

And the GI50 (HOP-62)?
The GI50 was 12.1 µM (inactive).

What about the GI50 (TK-10) of the same compound?
The GI50 was 15.2 µM (inactive).

And the GI50 (SR)?
The GI50 was 2.74 µM (inactive).

What about the GI50 (Malme-3M) of the same compound?
Its GI50 is 5.21 µM (inactive).

And the GI50 (NCI-H226)?
Its GI50 is 5.98 µM (inactive).

And the GI50 (SK-OV-3)?
The GI50 was 7.69 µM (inactive).

What about the GI50 (HOP-92) of the same compound?
The GI50 was 1.21 µM (inactive).

What about the GI50 (OVCAR-3) of the same compound?
The GI50 was 3.4 µM (inactive).

And the GI50 (HT-29)?
The GI50 was 2.78 µM (inactive).

And the GI50 (OVCAR-4)?
The GI50 was 4.95 µM (inactive).

And the GI50 (SN12C)?
The GI50 was 10.1 µM (inactive).

What about the GI50 (M14) of the same compound?
The GI50 was 4.37 µM (inactive).

And the GI50 (SK-MEL-28)?
The GI50 was 5.55 µM (inactive).

What about the GI50 (UACC-62) of the same compound?
Its GI50 is 4.66 µM (inactive).

And the GI50 (KM12)?
The GI50 was 3.73 µM (inactive).
